Assay results as given in paper doi:10.1101/2024.11.15.623779v1 (biorxiv, 2024).

Target: T1, GCase (Cerezyme) (Homo sapiens, UniProt P04062, R534H)
T1 sequence (P04062 40-536 R534H): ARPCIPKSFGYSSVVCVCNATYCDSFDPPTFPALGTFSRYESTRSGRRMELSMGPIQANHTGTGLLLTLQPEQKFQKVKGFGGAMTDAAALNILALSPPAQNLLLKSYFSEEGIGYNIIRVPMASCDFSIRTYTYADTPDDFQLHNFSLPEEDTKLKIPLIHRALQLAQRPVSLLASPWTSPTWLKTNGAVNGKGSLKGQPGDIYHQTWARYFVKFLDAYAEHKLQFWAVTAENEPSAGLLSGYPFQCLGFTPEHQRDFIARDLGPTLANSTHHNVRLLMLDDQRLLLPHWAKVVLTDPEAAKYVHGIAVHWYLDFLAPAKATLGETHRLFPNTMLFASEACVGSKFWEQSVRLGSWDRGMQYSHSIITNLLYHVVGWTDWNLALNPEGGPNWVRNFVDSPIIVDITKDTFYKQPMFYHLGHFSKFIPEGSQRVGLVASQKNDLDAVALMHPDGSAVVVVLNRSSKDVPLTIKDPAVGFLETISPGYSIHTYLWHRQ
Experiment: SPR, immobilized GCase on CM5 chip
Format: binding
Conditions: pH […] HEPES, […] EDTA, […] NaCl, […] Tween-20; no IFG; allosteric

| Kd [µM] | Substance |
| --- | --- |
| 17 to 24 | GT-02287 |
| > 90 | GT-02329 |
